Measurements published in PubChem BioAssay (NCI).
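Briefly, cells in 96-well plates were exposed to five compound concentrations for 48 h, and endpoints were estimated by linear interpolation. Definition used: TGI = concentration required for complete inhibition of growth.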

Assays:
Test in all cases: NCI-60 cell line screen, 48 h
MDA-MB-231 breast = tested on: MDA-MB-231 breast
MDA-MB-435 = tested on: MDA-MB-435
HOP-92 NSCLC = tested on: HOP-92 NSCLC
U251 CNS = tested on: U251 CNS
HCC-2998 colon = tested on: HCC-2998 colon
SNB-19 CNS = tested on: SNB-19 CNS
LOX IMVI melanoma = tested on: LOX IMVI melanoma
MDA-N = tested on: MDA-N
MOLT-4 leukemia = tested on: MOLT-4 leukemia
SNB-75 CNS = tested on: SNB-75 CNS
SW-620 colon = tested on: SW-620 colon
SN12C renal = tested on: SN12C renal
ACHN renal = tested on: ACHN renal
NCI-H460 lung = tested on: NCI-H460 lung
HL-60(TB) leukemia = tested on: HL-60(TB) leukemia
CCRF-CEM leukemia = tested on: CCRF-CEM leukemia
HT29 colon = tested on: HT29 colon
IGROV1 ovarian = tested on: IGROV1 ovarian
786-0 renal = tested on: 786-0 renal
SF-539 CNS = tested on: SF-539 CNS
BT-549 breast = tested on: BT-549 breast
NCI-H522 lung = tested on: NCI-H522 lung
SK-MEL-5 melanoma = tested on: SK-MEL-5 melanoma
SF-268 CNS = tested on: SF-268 CNS
K-562 leukemia = tested on: K-562 leukemia
HS 578T breast = tested on: HS 578T breast
SF-295 CNS = tested on: SF-295 CNS
RXF 393 renal = tested on: RXF 393 renal
HOP-62 NSCLC = tested on: HOP-62 NSCLC
KM12 colon = tested on: KM12 colon
UO-31 renal = tested on: UO-31 renal
NCI-H23 lung = tested on: NCI-H23 lung
SR leukemia = tested on: SR leukemia
DU-145 prostate = tested on: DU-145 prostate
UACC-62 melanoma = tested on: UACC-62 melanoma
M14 melanoma = tested on: M14 melanoma
CAKI-1 renal = tested on: CAKI-1 renal
COLO 205 colon = tested on: COLO 205 colon
EKVX NSCLC = tested on: EKVX NSCLC
HCT-116 colon = tested on: HCT-116 colon
T-47D breast = tested on: T-47D breast
NCI-H226 lung = tested on: NCI-H226 lung
A498 renal = tested on: A498 renal
HCT-15 colon = tested on: HCT-15 colon
PC-3 prostate = tested on: PC-3 prostate
OVCAR-4 ovarian = tested on: OVCAR-4 ovarian
NCI/ADR-RES ovarian = tested on: NCI/ADR-RES ovarian
SK-MEL-2 melanoma = tested on: SK-MEL-2 melanoma
TK-10 renal = tested on: TK-10 renal
MCF7 breast = tested on: MCF7 breast
UACC-257 melanoma = tested on: UACC-257 melanoma
A549 NSCLC = tested on: A549 NSCLC
MALME-3M melanoma = tested on: MALME-3M melanoma
OVCAR-3 ovarian = tested on: OVCAR-3 ovarian
SK-OV-3 ovarian = tested on: SK-OV-3 ovarian
OVCAR-8 ovarian = tested on: OVCAR-8 ovarian
RPMI-8226 leukemia = tested on: RPMI-8226 leukemia
OVCAR-5 ovarian = tested on: OVCAR-5 ovarian
SK-MEL-28 melanoma = tested on: SK-MEL-28 melanoma

OC1(c2ccccc2)CSc2ncnn21 (centres undefined)
TGI (MDA-MB-231 breast): > 100 µM
TGI (MDA-MB-435): > 100 µM
TGI (HOP-92 NSCLC): > 100 µM
TGI (U251 CNS): > 100 µM
TGI (HCC-2998 colon): > 100 µM
TGI (SNB-19 CNS): > 100 µM
TGI (LOX IMVI melanoma): > 100 µM
TGI (MDA-N): > 100 µM
TGI (MOLT-4 leukemia): > 100 µM
TGI (SNB-75 CNS): > 100 µM
TGI (SW-620 colon): > 100 µM
TGI (SN12C renal): > 100 µM
TGI (ACHN renal): > 100 µM
TGI (NCI-H460 lung): > 100 µM
TGI (HL-60(TB) leukemia): > 100 µM
TGI (CCRF-CEM leukemia): > 100 µM
TGI (HT29 colon): > 100 µM
TGI (IGROV1 ovarian): > 100 µM
TGI (786-0 renal): > 100 µM
TGI (SF-539 CNS): > 100 µM
TGI (BT-549 breast): > 100 µM
TGI (NCI-H522 lung): > 100 µM
TGI (SK-MEL-5 melanoma): > 100 µM
TGI (SF-268 CNS): > 100 µM
TGI (K-562 leukemia): > 100 µM
TGI (HS 578T breast): > 100 µM
TGI (SF-295 CNS): > 100 µM
TGI (RXF 393 renal): > 100 µM
TGI (HOP-62 NSCLC): > 100 µM
TGI (KM12 colon): > 100 µM
TGI (UO-31 renal): > 100 µM
TGI (NCI-H23 lung): > 100 µM
TGI (SR leukemia): > 100 µM
TGI (DU-145 prostate): > 100 µM
TGI (UACC-62 melanoma): > 100 µM
TGI (M14 melanoma): > 100 µM
TGI (CAKI-1 renal): > 100 µM
TGI (COLO 205 colon): > 100 µM
TGI (EKVX NSCLC): > 100 µM
TGI (HCT-116 colon): > 100 µM
TGI (T-47D breast): > 100 µM
TGI (NCI-H226 lung): > 100 µM
TGI (A498 renal): > 100 µM
TGI (HCT-15 colon): > 100 µM
TGI (PC-3 prostate): > 100 µM
TGI (OVCAR-4 ovarian): > 100 µM
TGI (NCI/ADR-RES ovarian): > 100 µM
TGI (SK-MEL-2 melanoma): > 100 µM
TGI (TK-10 renal): > 100 µM
TGI (MCF7 breast): > 100 µM
TGI (UACC-257 melanoma): > 100 µM
TGI (A549 NSCLC): > 100 µM
TGI (MALME-3M melanoma): > 100 µM
TGI (OVCAR-3 ovarian): > 100 µM
TGI (SK-OV-3 ovarian): > 100 µM
TGI (OVCAR-8 ovarian): > 100 µM

O=c1[nH]cnc2[nH]cc(CN3CCCCC3)c12
TGI (MDA-MB-231 breast): > 100 µM
TGI (MDA-MB-435): > 100 µM
TGI (HOP-92 NSCLC): > 100 µM
TGI (U251 CNS): > 100 µM
TGI (SNB-19 CNS): > 100 µM
TGI (LOX IMVI melanoma): > 100 µM
TGI (MDA-N): > 100 µM
TGI (RPMI-8226 leukemia): 87.2 µM
TGI (MOLT-4 leukemia): > 100 µM
TGI (SNB-75 CNS): > 100 µM
TGI (SW-620 colon): > 100 µM
TGI (OVCAR-5 ovarian): > 100 µM
TGI (SN12C renal): > 100 µM
TGI (ACHN renal): > 100 µM
TGI (NCI-H460 lung): 43.8 µM
TGI (HL-60(TB) leukemia): 38.2 µM
TGI (CCRF-CEM leukemia): 36.2 µM
TGI (HT29 colon): > 100 µM
TGI (IGROV1 ovarian): > 100 µM
TGI (786-0 renal): > 100 µM
TGI (SF-539 CNS): > 100 µM
TGI (BT-549 breast): > 100 µM
TGI (NCI-H522 lung): > 100 µM
TGI (SK-MEL-28 melanoma): > 100 µM
TGI (SK-MEL-5 melanoma): > 100 µM
TGI (SF-268 CNS): > 100 µM
TGI (K-562 leukemia): > 100 µM
TGI (HS 578T breast): > 100 µM
TGI (SF-295 CNS): > 100 µM
TGI (RXF 393 renal): > 100 µM
TGI (HOP-62 NSCLC): > 100 µM
TGI (KM12 colon): > 100 µM
TGI (UO-31 renal): > 100 µM
TGI (NCI-H23 lung): > 100 µM
TGI (SR leukemia): > 100 µM
TGI (DU-145 prostate): > 100 µM
TGI (UACC-62 melanoma): > 100 µM
TGI (M14 melanoma): > 100 µM
TGI (CAKI-1 renal): > 100 µM
TGI (COLO 205 colon): > 100 µM
TGI (EKVX NSCLC): > 100 µM
TGI (HCT-116 colon): 30.6 µM
TGI (T-47D breast): > 100 µM
TGI (NCI-H226 lung): > 100 µM
TGI (A498 renal): > 100 µM
TGI (HCT-15 colon): > 100 µM
TGI (PC-3 prostate): > 100 µM
TGI (OVCAR-4 ovarian): > 100 µM
TGI (NCI/ADR-RES ovarian): > 100 µM
TGI (SK-MEL-2 melanoma): > 100 µM
TGI (TK-10 renal): > 100 µM
TGI (MCF7 breast): > 100 µM
TGI (UACC-257 melanoma): 87.3 µM
TGI (A549 NSCLC): > 100 µM
TGI (MALME-3M melanoma): > 100 µM
TGI (OVCAR-3 ovarian): > 100 µM
TGI (SK-OV-3 ovarian): > 100 µM
TGI (OVCAR-8 ovarian): > 100 µM
